Type in all cases: physicochemical
Data set [1] in a line: Preliminary testing of potential surfactants: comments and overall assessment. Particulars: BOE 7-1; prior to filtration. The procedure: (§1) A preliminary testing was conducted prior to filtration to evaluate whether individual components of the claimed surfactant(s), would work individually, need modification, or require combining to give a basic understanding which would lead to synthesis of the surfactant(s) of the invention. Potential surfactant candidates were prepared and evaluated in an aqueous mixture comprised of about 35% by weight of ammonium fluoride, NH4F, and about 6.3% by weight of hydrofluoric acid, HF, (defined as BOE 7-1).

Data set [2] in a line: Surface tension measurement of surfactant-containing etchant. Particulars: BOE 7-1 (about 35% NH4F, about 6.3% HF); 25° C.; prior to filtration; incremental additions until ST stabilized or saturation. On the procedure: In the examples, a surfactant was added to a mixture of predetermined amounts of hydrofluoric acid, ammonium fluoride and deionized water to prepare an etchant composition. The prepared composition was kept standing at room temperature and test samples were periodically withdrawn to measure the change of surface tension of the composition.
as §1
In this run, surfactant “H” was tested with an aqueous solution of mixed etchants consisting of about 85% by weight of sulfuric acid, about 5% by weight of nitric acid, and about 1.5% by weight hydrofluoric acid. 100 ppm (Sample 1) and 200 ppm (Sample 2) by weight of surfactant “H” were mixed into two separate samples of FS Etch. The surface tension of both unfiltered samples was measured 1 hour upon batch completion and after 15 days of storage.
Additional measurements of surface tension at 25° C. were carried out on unfiltered aqueous etchants of (1) 40% by weight ammonium fluoride, and (2) 9.2% by weight of hydrofluoric acid containing 100 ppm by weight of surfactant “H” (Table I).

Data set [3] can be described thus: Solubility of surfactant in BOE (saturation point). The settings on record: BOE 7-1; prior to filtration. The procedure:
Potential surfactant candidates were prepared and evaluated in an aqueous mixture comprised of about 35% by weight of ammonium fluoride, NH4F, and about 6.3% by weight of hydrofluoric acid, HF, (defined as BOE 7-1).

On to `NC1CCCCCC1` [Surfactant A, Cycloheptylamine], for which, in data set [1], the Comments result is “ST too high” and the “Promising (Yes/No)” value is given as “No”. Moreover, the Surface Tension in data set [2] is 72 dynes/cm. Moreover, the “Solubility In BOE” value in data set [3] is recorded as “≦400 ppm”.
Regarding `NC1CCCCCCC1` [Surfactant B, Cyclooctylamine], in data set [1], the Comments entry is reported as “ST too high” and the “Promising (Yes/No)” value is reported as “No”. In data set [2], this compound gave a Surface Tension of 65 dynes/cm. In addition, in data set [3], the “Solubility In BOE” value was “≦600 ppm”.
`NC1CCCC1` [Surfactant C, Cyclopentylamine]: in data set [1], the Comments result is given as “ST too high” and the “Promising (Yes/No)” value is given as “No”. This compound registered a Surface Tension in data set [2] of 65 dynes/cm. Further, in data set [3], the “Solubility In BOE” value is listed as “≦400 ppm”.
As for `O=C(O)C(F)(F)C(F)(F)C(F)(F)C(F)(F)C(F)(F)C(F)(F)C(F)(F)F` [Surfactant D, Perfluorooctanoic Acid], in data set [1], the Comments entry is on record as “Precipitated” and the “Promising (Yes/No)” value was “No”. Also, the Surface Tension in data set [2] is 20 dynes/cm. Besides, in data set [3], the “Solubility In BOE” value is given as “≦100 ppm”.
Take `O=C(O)C(F)(F)C(F)(F)C(F)(F)C(F)(F)C(F)(F)C(F)(F)F` [Surfactant E, Perfluoroheptanoic Acid]: in data set [1], the Comments result is “Precipitated” and the “Promising (Yes/No)” value is “No”. For the same compound, in data set [2], the Surface Tension came to 20 dynes/cm. Also, in data set [3], the “Solubility In BOE” value was “≦100 ppm”.
`O=C(O)C(F)(F)C(F)(F)C(F)(F)C(F)(F)C(F)(F)C(F)(F)C(F)(F)C(F)(F)F` [Surfactant F, Perfluorononanoic Acid]: in data set [1], the Comments result is recorded as “Precipitated” and the “Promising (Yes/No)” value is on record as “No”. In data set [2], this compound showed a Surface Tension of 25 dynes/cm. In addition, the “Solubility In BOE” value in data set [3] was “≦100 ppm”.
Take `O=C(O)C(F)(F)C(F)(F)C(F)(F)C(F)(F)F` [Surfactant G, Perfluoropentanoic Acid]: in data set [1], the Comments entry is reported as “Precipitated” and the “Promising (Yes/No)” value is “No”. This compound registered a Surface Tension in data set [2] of 24 dynes/cm. The “Solubility In BOE” value in data set [3] was “≦100 ppm”.

These data come from patent US20060097218A1, “Etchants containing filterable surfactant” (General Chemical Performance Products LLC, priority 2004, published 2006).
